Key:
[1] = test system: MCF-12A non-tumorigenic breast epithelial cell line; assay: Resazurin cytotoxicity assay, MCF-12A; format: cell-based; conditions: Homo sapiens, MCF-12A cells, 96 hours treatment, read-out: MCF-12A IC50 (μM) ± SD
Procedure: (§1) Cytotoxicity and the IC50 of the synthetic compounds were determined using the resazurin assay, [12, 13]. The cancer cells MCF-7 hormone receptor positive breast cancer [estrogen receptor (ER)^+, progesterone receptor (PR)^+, human epidermal growth factor-2 (HER-2)^-; ATCC: HTB-22), HCC70 triple negative breast cancer (TNBC, ER^-, PR^-, HER-2^-; ATCC: CRL-2315) and a non-tumorigenic breast epithelial cell line MCF-12A (ATCC: CRL-10782), were seeded at a density of 5000 cells/well in a 96 well plate and were allowed to adhere overnight at 37°C in a 9% CO2 incubator. The cells were then treated with the synthetic compounds at a concentration range from 15.63–500.00 μM or with a vehicle control [0.2% (v/v) DMSO] for 96 hours at 37°C in a 9% CO2 incubator. Thereafter, […] of resazurin solution was added and the cells were incubated for 2–4 hours at 37°C in a 9% CO2 incubator. The fluorescence was then measured on a Spectramax spectrophotometer with excitation and emission wavelength set at 560 and 590 nm respectively. The experiment was done in technical triplicate and the data were analyzed using GraphPad Prism Inc, (USA) with half-maximal inhibitory concentration (IC50 values) determined by non-linear regression. Selectivity index values for the compounds were calculated as follows: (IC50 of compound against MCF12A cells)÷(IC50 of compound against breast cancer cells) where a SI > 1 is indicative of selective toxicity towards cancer cells vs non-cancerous cells.
(§2) The HCC70 (ATCC-CRL-2315) basal triple-negative breast cancer (TNBC) cell lines and MCF-7 luminal A cancer cell line (ATCC-HTB-22) were purchased from the American Type Culture Collection (ATCC, USA). The MCF-12A breast epithelial cell line (ATCC-CRL-10782) was a gift from Dr Anna-Mart Engelbrecht (Department of Physiology, Stellenbosch University, South Africa).

[2] = test system: MCF-7 hormone receptor positive breast cancer cells; assay: Resazurin cytotoxicity assay, MCF-7; format: cell-based; conditions: for IC50: Homo sapiens, MCF7, MCF-7 cells, 96 hours treatment, resazurin, read-out: MCF-7 IC50 (μM) ± SD; for SI (selectivity index) for MCF-7: IC50 against MCF12A cells ÷ IC50 against MCF-7 cells
Procedure: as §1, §2

[3] = test system: HCC70 triple negative breast cancer cells; assay: Resazurin cytotoxicity assay, HCC70; format: cell-based; conditions: for IC50: Homo sapiens, HCC70 cells, 96 hours treatment, resazurin, read-out: HCC70 IC50 (μM) ± SD; for SI (selectivity index) for HCC70: IC50 against MCF12A cells ÷ IC50 against HCC70 cells
Procedure: as §1, §2

[4] = test system: leukemia cells (K562); design: method as in ref 3, 19 = [3]; doi:10.1039/C2MD20172K; 3 Woods JR , Mo H , Bieberich AA , Alavanja T , Colby DA . Amino derivatives of the sesquiterpene lactone class of natural products as prodrugs . Med.Chem.Comm . 2013; 4 ( 1 ): 27 – 33 . doi: 10.1039 || [19]; 19 Unde NR , Hiremath SV , Kulkarni GH , Kelkar GR . Amino derivatives of sesquiterpenes lactone class of natural products prodrugs . Tetrahedron Lett . 1968; 9 : 4861 – 4862 .; conditions: antiproliferative; cited from earlier work
[5] = test system: colorectal cancer cells (SW-620); design: method as in PMID 16766184; conditions: cytotoxicity; cited from earlier work
[6] = test system: colon cancer cells (SW-620); design: method as in ref 3 = [3]; doi:10.1039/C2MD20172K; 3 Woods JR , Mo H , Bieberich AA , Alavanja T , Colby DA . Amino derivatives of the sesquiterpene lactone class of natural products as prodrugs . Med.Chem.Comm . 2013; 4 ( 1 ): 27 – 33 . doi: 10.1039; conditions: antiproliferative; cited from earlier work

Structure (SMILES) | IC50 [1] | IC50 [2] | SI (selectivity index) for MCF-7 [2] | IC50 [3] | SI (selectivity index) for HCC70 [3] | GI50 [4] | IC50 [5] | GI50 [6]
C=C1CC[C@@H]2C(=C)CC[C@H]3[C@@H](OC(=O)[C@H]3CN(CC)CC)[C@H]12 (relative stereo) [DHLC-2, (*3aS,6aR,9aR,9bS*)-3-[(diethylamino)methyl]decahydro-6,9-bis(methylene)azuleno[4,5-b]furan-2(3H)-one] | 8.88 ± 1.1 µM | 0.07 µM | SI = 126.86 | 1.48 ± 1.49 µM | SI = 6.00 |  |  | 
CC[C@@]1(O)C(=O)OCc2c1cc1n(c2=O)Cc2cc3ccccc3nc2-1 [Camptothecin, reference compound] | 104.2 ± 1.04 µM | 104 ± 9.92 µM |  | 83.2 ± 1.08 µM |  |  |  | 
C=C1CC[C@H]2C(=C)CC[C@H]3C(=C)C(=O)O[C@@H]3[C@@H]12 [DHLC, Dehydrocostus lactone, reference compound] | 0.07 ± 0.07 µM | 24.7 ± 1.25 µM |  | 1.11 ± 1.31 µM | SI = 0.06 |  |  | 
C=C1CC[C@@H]2C(=C)CC[C@H]3[C@@H](OC(=O)[C@H]3CN(C)C)[C@H]12 [DHLC-1, Guaia-4(15),10(14)-dien-12-oic acid, 13-(dimethylamino)-6-hydroxy-γ-lactone] | 8.47 ± 1.42 µM | 0.07 ± 0.07 µM | SI = 121 | 0.64 ± 1.47 µM | SI = 13.23 |  |  | 
C=C1CC[C@@H]2C(=C)CC[C@H]3[C@@H](OC(=O)[C@H]3CNCC)[C@H]12 [DHLC-3, Guaia-4(15),10(14)-dien-12-oic acid, 13-(ethylamino)-6-hydroxy-γ-lactone] | 188.2 ± 1.35 µM |  | SI = 8.33 | 3.25 ± 1.36 µM | SI = 57.91 |  |  | 
C=C1CC[C@@H]2C(=C)CC[C@H]3[C@@H](OC(=O)[C@H]3CNCCN)[C@H]12 [DHLC-4, 13-ethylenediamine dehydrocostus lactone] | 147.7 ± 1.28 µM | 4.24 ± 1.29 µM | SI = 34.83 | 2.71 ± 1.3 µM | SI = 54.50 |  |  | 
C=C1C(=O)O[C@@H]2/C=C(\C)CC/C=C(\C)CC[C@@H]12 [costunolide] |  |  |  |  |  | 14.5 µM | 7.8 µM | 7.8 µM
